# Experimental data: patent publication EP4353712A1 (Biodol Therapeutics, priority 2022, dated 2024)
# pIC50: −log10 of the molar value. Counter-ions that a name gives are not always drawn.
# Target: T1, FLT3 (Homo sapiens, UniProt P36888)
# T1 construct: expressed in transfected cells; host or cells: HEK293T
# T1 sequence (P36888 27-993): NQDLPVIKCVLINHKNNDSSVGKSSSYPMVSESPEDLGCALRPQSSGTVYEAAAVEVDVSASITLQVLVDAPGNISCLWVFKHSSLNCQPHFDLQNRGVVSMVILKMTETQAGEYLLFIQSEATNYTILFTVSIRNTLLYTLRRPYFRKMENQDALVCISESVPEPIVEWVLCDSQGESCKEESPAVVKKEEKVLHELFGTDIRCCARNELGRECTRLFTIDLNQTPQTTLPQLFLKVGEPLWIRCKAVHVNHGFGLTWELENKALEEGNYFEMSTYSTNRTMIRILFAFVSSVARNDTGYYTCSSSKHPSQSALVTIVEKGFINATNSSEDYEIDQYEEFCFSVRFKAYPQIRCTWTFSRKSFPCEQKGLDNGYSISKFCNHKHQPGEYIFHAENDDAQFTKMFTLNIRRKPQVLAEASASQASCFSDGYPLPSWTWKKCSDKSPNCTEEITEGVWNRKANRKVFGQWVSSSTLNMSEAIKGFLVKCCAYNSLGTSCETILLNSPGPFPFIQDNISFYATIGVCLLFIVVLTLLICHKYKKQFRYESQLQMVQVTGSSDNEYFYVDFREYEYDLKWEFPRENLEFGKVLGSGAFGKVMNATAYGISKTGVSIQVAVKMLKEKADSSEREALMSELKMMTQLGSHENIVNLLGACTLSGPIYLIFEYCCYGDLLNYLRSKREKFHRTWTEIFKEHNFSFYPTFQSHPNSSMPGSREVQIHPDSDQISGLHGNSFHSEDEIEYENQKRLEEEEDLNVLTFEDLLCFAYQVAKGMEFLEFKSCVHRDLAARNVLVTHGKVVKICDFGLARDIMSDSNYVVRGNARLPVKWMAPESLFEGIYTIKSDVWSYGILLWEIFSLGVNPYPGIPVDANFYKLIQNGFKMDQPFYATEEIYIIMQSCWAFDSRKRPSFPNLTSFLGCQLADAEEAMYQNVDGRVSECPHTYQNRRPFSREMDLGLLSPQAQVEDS
# Assay: HTRF binding assay of FL to FLT3 (TR-FRET, SNAP-FLT3 transfected HEK293T cells)
# Conditions: HEK293T cells transfected with SNAP-FLT3, labelled with SNAP-Lumi4-Tb; compounds 1 h at room temperature, then FL-d2 (0.5 nM), read after 20 h; 12 dilutions in triplicates, performed twice; read-out: Inhibition of FLT3 binding IC50, binding
# Method: The binding of FL to FLT3 was measured by a Homologous Time-Resolved Fluorescence (HTRF) assay (Degorce et al., Current Chemical Genomics, 2009, 3, 22-32), which involves resonance energy transfer between a donor, Lumi4-Tb-donor-derivatized benzylguanine substrate (SNAP-Lumi4-Tb, excitation: 337 nm, emission: 630 nm, Cisbio, France), transfected in HEK cells, and an acceptor, red fluorescent FL (FL-d2, excitation: 620 nm, emission: 660 nm, Cisbio, France). When FL-d2 binds to the SNAP-Lumi4-Tb-tagged FLT3 receptor, the proximity of both fluorophores allows the time-resolved Förster resonance energy transfer (TR-FRET) signal to occur and the binding is measured as the ratio between the fluorescent emissions at 660 to 620 nm.
# The detailed method is described in Rivat et al. (Nature Communications, 2018, 9 :1042). Briefly, HEK293T cells were transfected with a pCDNA3.1 SNAP-FLT3 plasmid by using Lipofectamine (Invitrogen), and were than labelled with SNAP-Lumi4-Tb. Plates containing attached transfected HEK293T cells were incubated with compounds of formula (I) for 1 h at room temperature. A series of 12 dilutions in triplicates was used for each compound and the experiment was performed twice. Then FL-d2 (0.5 nM) was added and the TR-FRET signal was read after 20 h incubation at room temperature with a HTRF-compatible reader (Envision, Perkin Elmer) allowing a donor excitation at 337 nm and a signal collection both at 615 nm and 665 nm (20 flashes, delay 50 µs, integration time 400 µs). Then HTRF ratio, obtained by dividing the acceptor signal (665 nm) by the donor signal (615 nm), was calculated at each concentration of test compounds. Non-specific binding was measured in the presence 50 µM of BDT001 (Rivat et al., ibid.). Concentration giving 50 % inhibition (IC50) were calculated by non-linear regression analysis for a one-site model, with variable slope (Prism®, Graphpad software, USA).
row,SMILES,pIC50
1,"CN1CCN(c2ccc(C(=O)Nc3cccc4cnccc34)cc2)CC1 [(39), N-(isoquinolin-5-yl)-4-(4-methylpiperazin-1-yl)benzamide]",6.10
2,"CN1CCN(c2ccc(C(=O)Nc3cccc4ncccc34)cc2)CC1 [(40), 4-(4-methylpiperazin-1-yl)-N-(quinolin-5-yl)benzamide]",5.77
3,"CN1CCN(c2ccc(C(=O)Nc3cccc4nccnc34)cc2)CC1 [(41), 4-(4-methylpiperazin-1-yl)-N-(quinoxalin-5-yl)benzamide]",6.22
4,"CN1CCN(c2ccc(C(=O)Nc3ccc(F)c4cccnc34)cc2)CC1 [(42), N-(5-fluoroquinolin-8-yl)-4-(4-methylpiperazin-1-yl)benzamide]",5.51
5,"Cc1cc(C(=O)Nc2cccc3cccnc23)ccc1OCCN(C)C [(43), 4-(2-(dimethylamino)ethoxy)-3-methyl-N-(quinolin-8-yl)benzamide]",5.68
6,"CN1CCN(c2ccc(C(=O)Nc3ccc(F)c4ncccc34)cc2)CC1 [(44), N-(8-fluoroquinolin-5-yl)-4-(4-methylpiperazin-1-yl)benzamide]",5.42
7,"Cc1cc(N2CCN(C)CC2)ccc1C(=O)Nc1cccc2cnccc12 [(45), N-(isoquinolin-5-yl)-2-methyl-4-(4-methylpiperazin-1-yl)benzamide]",6.00
8,"CN1CCN(c2ccc(C(=O)Nc3ccc(Cl)c4ncccc34)cc2)CC1 [(46), N-(8-chloroquinolin-5-yl)-4-(4-methylpiperazin-1-yl)benzamide]",6.00
9,"Cc1cc(OCCN(C)C)ccc1C(=O)Nc1cccc2ncccc12 [(47), 4-(2-(dimethylamino)ethoxy)-2-methyl-N-(quinolin-5-yl)benzamide]",5.77
10,"CN(C)CCOc1ccc(C(=O)Nc2cccc3cnccc23)cc1C(F)(F)F [(48), 4-(2-(dimethylamino)ethoxy)-N-(isoquinolin-5-yl)-3-(trifluoromethyl)benzamide]",5.89
11,"CN(C)CCOc1ccc(C(=O)Nc2cccc3ncccc23)c(C(F)(F)F)c1 [(49), 4-(2-(dimethylamino)ethoxy)-N-(quinolin-5-yl)-2-(trifluoromethyl)benzamide]",5.62
12,"COc1cc(C(=O)Nc2cccc3ncccc23)ccc1N1CCN(C)CC1 [(50), 3-methoxy-4-(4-methylpiperazin-1-yl)-N-(quinolin-5-yl)benzamide]",5.64
13,"CN1CCN(c2ccc(C(=O)Nc3ccc(Cl)c4cnccc34)cc2)CC1 [(51), N-(8-chloroisoquinolin-5-yl)-4-(4-methylpiperazin-1-yl)benzamide hydrochloride]",5.89
14,"CN1CCN(c2ccc(C(=O)Nc3ccc(C(F)(F)F)c4ccncc34)cc2)CC1 [(52), 4-(4-methylpiperazin-1-yl)-N-[5-(trifluoromethyl)isoquinolin-8-yl]benzamide hydrochloride]",5.12
